Laboratory results reported in US20050118564A1, “Methods and compositions for identification and therapeutic use of genes involved in vascular and proliferative diseases” (priority 2002, published 2005).

Key:
Type in all cases: cell-based
[1] = tested on: Human aortic endothelial cells (HAEC); experiment: MCP-1 secretion by human aortic endothelial cells exposed to disease stimuli (ELISA); settings: 16 hrs, stimulus alone: 1 ng/ml TNF-α, 1 nM insulin or 100 μg/ml glycated HSA
Method: (§1) Human aortic endothelial cells (HAEC) were grown with culture medium (Basal medium from Clonetics) containing 0.2% albumin with or without 1 ng/ml TNF-α or 100 μg/ml glycated-human serum albumin (HAS) or 1 nM insulin for 16 hrs. Media were collected and the amounts of […] (DuoSet ELISA development kit—R&D Systems) and MCP-1 (Quantiline Human MCP-1 kit—R&D Systems) were measured. VCAM-1 expression was measured by incubating […] with a polyclonal goat anti-human VCAM-1 antibody (R&D Systems, 1:1000 dilution) followed by development with a rabbit anti-goat IgG-conjugated with horseradish peroxidase (HRP).

[2] = tested on: Human aortic endothelial cells (HAEC); experiment: VCAM-1 expression in human aortic endothelial cells exposed to disease stimuli; settings: 16 hrs, 1 ng/ml TNF-α, 1 nM insulin, alone or together
Method: as §1

Smooth muscle cells [3] = experiment: IL-6 secretion by smooth muscle cells exposed to disease stimuli; settings: 1 ng/ml TNF-α, 1 nM insulin, alone or together
Smooth muscle cells [4] = experiment: MCP-1 secretion by smooth muscle cells exposed to disease stimuli; settings: 1 ng/ml TNF-α, 1 nM insulin, alone or together
[5] = tested on: Endothelial and smooth muscle cells grown together; experiment: IL-6 expression in co-cultures of endothelial and smooth muscle cells; settings: endothelial and smooth muscle cells mixed (1:1, 1:2, 1:4) or layered; TNFα 1 ng/ml
Method: Endothelial and smooth muscle cells were grown together in culture media (Basal medium from Clonetics) containing 0.2% albumin. The cells had either nothing added, 1ng/ml TNFα, 1 nM insulin or TNFα and insulin. The media were collected and the amount of IL-6 and MCP-1 was measured.

Substance	increase in MCP-1 secretion [1]	effect on VCAM-1 gene expression [2]	induction of IL-6 expression (Smooth muscle cells [3])	induction of MCP-1 expression (Smooth muscle cells [4])	stimulus-induced IL-6 expression in co-culture versus cells cultured separately [5]
Insulin: hormone used as vascular disease stimulus, 1 nM	40%	no effect	only moderate induction	only moderate induction	
TNF-α	about 400%	2.8 fold	only moderate induction	only moderate induction	greatly enhanced
interleukin-1: cytokine used as disease stimulus in co-cultures (FIG. 8: IL-1β)					neither interleukin-1 nor glycated albumin/advanced glycation end products (AGE) showed enhanced induction
